Consider twelve compounds from US8957094B2, “Therapeutic agent or prophylactic agent for fibromyalgia” (Toray Industries, Inc., priority 2010, dated 2015).

One assay relates to fibromyalgia. As to conditions: reported, Abeles et al., Am J. Med., 2008; cited from earlier work.
Assay [1] has as its system mouse partial sciatic nerve ligation model. In words: Mouse partial sciatic nerve ligation model (Seltzer model), von Frey test (neuropathic pain). As to conditions: for Score Improvement %: 1 hour after administration, relative to vehicle and sham surgery groups; for von Frey Total Score of 1 Hour after Oral Administration (Mean ± S.E.), Test Compound-Administered Group: n = 5-6, 7 days after ligation. Further details: von Frey Total Score of 1 Hour after Oral Administration (Mean ± S.E.), Test Compound-Administered Group: scale not given here. It is filed as in vivo. As for the experimental part:
Mouse models of partial sciatic nerve ligation were prepared according to Seltzer's method (Malmberg et al., Pain, 1998, vol. 76, p. 215-222). Male ICR mice of 5 weeks old were anesthetized with Sodium pentobarbital (70 mg/kg, i.p.), and thereafter, the sciatic nerve at the femoral region of the right hindlimb of each mouse was exposed, and the sciatic nerve was triply ligated tightly with silk suture of 8-0 (NATSUME SEISAKUSHO) under microscope so that only half thickness of the nerve was trapped in the ligature, which mice were used as a ligation group. The mice whose sciatic nerves were exposed but not ligated were used as a sham surgery group.
Evaluation of neuropathic pain (hereinafter “von Frey test”) was carried out as follows. Mice were conditioned for at least 1 hour in an acryl cage for measurement (NATSUME SEISAKUSHO) placed on a wire net. Thereafter, using a filament (North Coast Medical, Inc. CA, USA) which exerted a pressure of 0.16 g, the mice were subjected to mechanical tactile stimulus by applying the filament to the plantar surface of both hindpaws 3 times, each for 3 seconds, with an interval of 3 seconds.
Seven days after the sciatic nerve ligation, test compounds were orally administered to the mice. Prior to the oral administration of the test compounds, the von Frey test was carried out to split the animals of the ligation group into vehicle groups and test compound-administered groups so that the sums of the total scores of the groups were equalized. The mice of the sham surgery groups, the vehicle groups and the test compound-administered groups were subjected to the von Frey test 1 hour, 2 hours and 3 hours after oral administration of a vehicle or a test compound, and the obtained scores were used as an indicator of analgesic effect. As a vehicle of test compound solution or suspension, DMSO:Tween80:distilled water (1:1:8), 27% HP-β-CD or 0.5% MC was used.
For evaluation of drug efficacy, data were statistically processed by unpaired multigroup t test (adjusted by Dunnett), taking the vehicle group of each measurement time as a control.

In another assay the test system is rat fibromyalgia model. In words: Effects on rat fibromyalgia model (acidic saline injection; allodynia by von Frey filaments). Format: in vivo. Conditions: compared with the vehicle group, Day 7, 1-3 h after dosing, p<0.05, FIG. 1. Here is the method:
In the experiments, 5 to 6 male SD rats of 6 to 7 weeks old were used for one experimental group. One hundred microliters of acidic physiological saline with pH of 4.0 was injected twice (taking the day when administration of acidic physiological saline started as Day 1, the administration was carried out once on Day 1 and once on Day 6) to gastrocnemius muscle of right hindlimb of each anesthetized rat to prepare a rat fibromyalgia model (Sluka et al., J. Pharmacol. Exp. Ther., 2002, vol. 302, p. 1146; Nagakura et al., Pain, 2009, vol. 146, p. 26; Sluka et al., Pain, 2009, vol. 146, p. 3), which was considered to reflect clinical symptoms of fibromyalgia based on their pharmacological characteristics and thus widely used in basic studies of fibromyalgia. In the same manner, physiological saline was administered to the control group.
For measurement of allodynia observed in a rat fibromyalgia model, a 50% withdrawal threshold (g) was determined using von Frey filaments in accordance with the method described in Chaplan et al., J. Neurosci. Methods, 1994, vol. 53, p. 55. On Day 7, allodynia was measured before oral administration of the test compound as Pre, and 1-, 2- and 3-hour after oral administration of the test compound. Rats which developed allodynia by receiving intramuscular injection of acidic physiological saline were used as a rat fibromyalgia model to evaluate the analgesic effect of the test compound. The term “rats which developed allodynia” herein means the rats showing a 50% withdrawal threshold (g) (the mean value of right and left hind paws) of 6 g or less. Pregabalin was used as a positive control.
Compound 3, which is included in Compound (I), was suspended in 0.5% methylcellulose solution (hereinafter “0.5% MC”) to a concentration of 5 mg/mL or 10 mg/mL, and orally administered at an administration volume of 1 mL per 1 kg body weight. Pregabalin was suspended in 0.5% MC to a concentration of 10 mg/mL, and orally administered at an administration volume of 1 mL per 1 kg body weight. The vehicle group received oral administration of 0.5% MC. […]

For `COc1ccc2cc([C@H](C)C(=O)O)ccc2c1` [naproxen], the “analgesic effect in treating fibromyalgia” value with fibromyalgia is recorded as “any statistically significant analgesic effect is not observed”.
`COc1ccc(-n2nc(C3(O)CCC(O)CC3)cc2-c2ccc(C)cc2)cc1` (single isomer, unassigned) [Compound 2, 1-(1-(4-methoxyphenyl)-5-(p-tolyl)-1H-pyrazol-3-yl)cyclohexan-trans-1,4-diol]: in assay [1] (dose 0.3 mg/kg oral, 0.3 mg/kg), the “Score Improvement %” value was found to be 104% and the “von Frey Total Score of 1 Hour after Oral Administration (Mean ± S.E.), Test Compound-Administered Group” value (“von Frey Total Score of 1 Hour” below) is given as 0.8 ± 0.5.
On to `COc1ccc(-c2cc(C3(O)CCC(O)CC3)nn2-c2ccc(OC)cc2)cc1` (stereo not drawn) [Compound 8, 1-(1,5-bis(4-methoxyphenyl)-1H-pyrazol-3-yl)cyclohexan-cis-1,4-diol], for which the “von Frey Total Score of 1 Hour” value in assay [1] (dose 10 mg/kg oral) is recorded as 2.2 ± 0.5.
On to `COc1ccc(-n2nc(C3(O)CCC(O)CC3)cc2-c2ccc(C)cc2)cc1` (single isomer, unassigned) [Compound 3, 1-(1-(4-methoxyphenyl)-5-(p-tolyl)-1H-pyrazol-3-yl)cyclohexan-cis-1,4-diol], for which the “allodynia observed in the rat fibromyalgia model (50% withdrawal threshold)” value with rat fibromyalgia model (oral administration 5 mg/kg) and in the assay on rat fibromyalgia model (oral administration 10 mg/kg) was “significantly improved allodynia” each time. In addition, the “Score Improvement %” value in assay [1] (dose 0.3 mg/kg oral, 0.3 mg/kg) amounted to 83%. Also, the “von Frey Total Score of 1 Hour” value in assay [1] (dose 0.3 mg/kg oral, 0.3 mg/kg) was 1.2 ± 0.8.
On to `COc1ccc(-n2nc(C3(O)CCC(O)CC3)cc2-c2ccc(C)cc2)cc1F` (stereo not shown) [Compound 54], for which the “von Frey Total Score of 1 Hour” value in assay [1] (dose 10 mg/kg oral) turned out to be 1.2 ± 0.6.
Regarding `CC(C)Cc1ccc(C(C)C(=O)O)cc1` (stereo not shown) [ibuprofen], the “analgesic effect in treating fibromyalgia” value with fibromyalgia is on record as “any statistically significant analgesic effect is not observed”.
For the compound `COc1ccc(-c2nc(C3(O)CCC(O)CC3)oc2-c2ccc(OC)cc2)cc1` (stereo not drawn) [Compound 43, 4-(4,5-bis(4-methoxyphenyl)oxazol-2-yl)cyclohexan-cis-1,4-diol], in assay [1] (dose 10 mg/kg oral), the “von Frey Total Score of 1 Hour” value is recorded as 0.8 ± 0.7.
With `CC(C)C[C@H](CN)CC(=O)O` [pregabalin, reference compound], the “allodynia observed in the rat fibromyalgia model (50% withdrawal threshold)” value with rat fibromyalgia model (oral administration 10 mg/kg) is on record as “significantly improved allodynia”.
Regarding `COc1ccc(-n2nc(C3(O)CCC(C(=O)O)CC3)cc2-c2ccc(C)cc2)cc1` (stereo not drawn) [Compound 16, 4-hydroxy-4-(1-(4-methoxyphenyl)-5-(p-tolyl)-1H-pyrazol-3-yl)-cis-cyclohexanecarboxylic acid], in assay [1] (dose 1 mg/kg oral), the “von Frey Total Score of 1 Hour” value was 2.3 ± 0.5.
Consider `COc1ccc(-n2nc(C3(O)CCC(O)CC3)cc2-c2ccc(C)c(F)c2)cc1` (stereo not shown) [Compound 55], for which the “von Frey Total Score of 1 Hour” value in assay [1] (dose 3 mg/kg oral) came to 0.7 ± 0.5.
As for `COc1ccc(-n2nc(C3(O)CCC(O)(C(F)(F)F)CC3)cc2-c2ccc(C)cc2)cc1` (stereo not drawn) [Compound 10, 1-(1-(4-methoxyphenyl)-5-(p-tolyl)-1H-pyrazol-3-yl)-4-(trifluoromethyl)cyclohexan-cis-1,4-diol], the “von Frey Total Score of 1 Hour” value in assay [1] (dose 1 mg/kg oral) was 1.5 ± 0.5.
On to `COc1ccc(-n2nc(C3(O)CCC(O)CC3)c(Cl)c2-c2ccc(C)cc2)cc1` (stereo not drawn) [Compound 9, 1-(4-chloro-1-(4-methoxyphenyl)-5-(p-tolyl)-1H-pyrazol-3-yl)cyclohexan-cis-1,4-diol], for which, in assay [1] (dose 10 mg/kg oral), the “von Frey Total Score of 1 Hour” value is given as 1.7 ± 0.6.
